Assay results taken from patent US20190135818A1 (SHANGHAI INSTITUTE OF MATERIA MEDICA, CHINESE ACADEMY OF …, priority 2016, published 2019).

Key:
[1] = biological target: T1, FGFR1 (Homo sapiens, UniProt P11362); assay: FGFR kinase inhibitory activity experiment (ELISA, Poly(Glu,Tyr)4:1 substrate); format: biochemical; conditions: kinase recombinant protein FGFR1, ATP 5 μM
T1 construct: The reaction was initiated by addition of FGFR kinase domain recombinant protein diluted with 49 μL of reaction buffer; purchased Millipore 14-482
T1 sequence (P11362 478-767 limits assumed): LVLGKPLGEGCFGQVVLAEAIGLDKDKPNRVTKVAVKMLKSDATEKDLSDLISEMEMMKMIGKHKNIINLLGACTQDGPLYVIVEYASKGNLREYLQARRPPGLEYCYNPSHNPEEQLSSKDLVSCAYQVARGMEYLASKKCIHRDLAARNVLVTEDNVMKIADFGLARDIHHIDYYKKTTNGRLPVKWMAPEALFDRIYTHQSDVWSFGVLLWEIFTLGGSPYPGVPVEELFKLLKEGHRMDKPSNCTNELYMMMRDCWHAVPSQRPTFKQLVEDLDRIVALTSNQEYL
Experimental: Precision electronic balance (Sartotius, Cat. No. BP210D), adjustable wavelength microplate reader (Molecular Device, Cat. No. SpectraMax 190).
After the liquid was removed from the wells, the plate was washed for three times with 200 μL/well of T-PBS (PBS containing 0.1% Tween-20) for 5 minutes each time. The enzyme plate was dried at 37° C. in a dryer for 1-2 hours.
50 μL ATP solution diluted with reaction buffer (50 mM HEPES pH 7.4, 50 mM MgCl2, 0.5 mM MnCl2, 0.2 mM Na3VO4, 1 mM DTT) was added into each well at a 5 μM final concentration. The compounds were diluted to appropriate concentration in DMSO, 1 μL/well or containing the corresponding concentrations of DMSO (negative control wells). The reaction was initiated by addition of FGFR kinase domain recombinant protein diluted with 49 μL of reaction buffer. Two control wells without enzyme were set in each experiment. The plate was placed on a shaker (100 rpm) at 37° C. for 1 hour. The plate was washed with T-PBS for three times. 100 μL/well of primary antibody PY99 dilution was added, and incubated at 37° C. for 0.5 hour on a shaker (100 rpm). The plate was washed with T-PBS for three times. 100 μL/well of horseradish peroxidase-labeled secondary anti-goat anti-mouse IgG dilution was added and incubated at 37° C. for 0.5 hour on a shaker (100 rpm). The plate was washed with T-PBS for three times. 100 μL/well of 2 mg/mL OPD coloration solution (diluted with 0.1 M citric acid-sodium citrate buffer containing 0.03% H2O2 (pH=5.4)) was added, and incubated in darkness for 1-10 minutes at 25° C. The reaction was quenched with 50 μL/well 2M H2SO4, and read at 490 nm using a tunable microplate microplate reader SPECTRA MAX 190.
The inhibition ratio of the sample was determined by the following formula: […]
(§1) The IC50 values were obtained by four-parameter regression analysis using the software supplied with the microplate reader.

[2] = system: Human acute myeloid leukemia cell line KG1; assay: FGFR-dependent tumor cell proliferation inhibition activity test (CCK-8, 72 h); format: cell-based
Excerpt: Human acute myeloid leukemia cell line KG1 (FGFR1 fusion protein expressed in the cytoplasm, FGFR1-dependent tumor cell line) (ATCC, Cat. No. CCL-246), cell culture medium RPMI-1640 (Corning Cellgro, No. 10-040-CVR), fetal bovine serum (Life
Technologies, Cat. No. 10099-141) was purchased from the company; CCK-8 cell counting kit (DOJINDO, Cat. No. FK808). Adjustable wavelength microplate reader (Molecular Device, Cat. No. SpectraMax 190).
The inhibitory effect of the compound on KG1 proliferation was detected by CCK-8 Cell Counting Kit (Dojindo): Logarithmic growth phase cells were seeded in 96-well culture plate in appropriate density, 90 ul for each well. After cultured overnight, different concentrations of drugs were added and incubated for 72 h, while solvent control well was set (negative control). After the cells were treated by the compound for 72 h, 10 μL of CCK-8 reagent was added to each well. After incubated for 2-4 hours in a 37 □ incubator, the plate was read with SpectraMax 190 microplate reader at wavelength 450 nm.
The inhibition rate of compounds against cell proliferation is calculated by the following formula:
Inhibition rate (%)=(OD negative control well-OD administration well)/OD negative control well×100%.
as §1

Row | Structure (SMILES) | IC50 [1] | IC50 ([2]; Homo sapiens, KG-1, KG1 cells) | IC50 ([2]; KG1 cells)
1 | Cc1ccc2oc(-c3c4c(N)n[nH]c(=O)c4nn3-c3ccc(NCN(C)C)cc3)c(C)c2c1 [Compound A9, 4-amino-3-(3,5-dimethyl-1-benzofuran-2-yl)-2-(4-{[(dimethylamino)methyl]amino}phenyl)-2,6-dihydro-7H-pyrazolo[3,4-d]pyridazin-7-one] | < 100 nM | 100 to 1000 nM | 
2 | C=CC(=O)N1CCC(n2nc3c(=O)[nH]nc(N)c3c2-c2oc3cc(Cl)ccc3c2C)CC1 [Compound A84, 2-(1-acryloylpiperidin-4-yl)-4-amino-3-(6-chloro-3-methylbenzofuran-2-yl)-2,6-dihydro-7H-pyrazolo[3,4-d]pyridazine-7-one] | < 100 nM | ≤ 100 nM | 
3 | CCN1CCC(n2nc3c(=O)[nH]nc(N)c3c2-c2oc3ccc(C)cc3c2C)CC1 [Compound A24, 4-amino-3-(3,5-dimethyl-1-benzofuran-2-yl)-2-(1-ethylpiperidin-4-yl)-2,6-dihy-dro-7H-pyrazolo[3,4-d]pyridazin-7-one] | < 100 nM | ≤ 100 nM | 
4 | CCN1CCC(n2nc3c(=O)[nH]nc(N)c3c2-c2oc3ccc(Cl)cc3c2C)CC1 [Compound A23, 4-amino-3-(5-chloro-3-methyl-1-benzo-furan-2-yl)-2-(1-ethylpiperidin-4-yl)-2,6-dihydro-7H-pyrazolo[3,4-d]pyridazin-7-one] | < 100 nM | ≤ 100 nM | 
5 | C=C(C#N)C(=O)N1CCC(n2nc3c(=O)[nH]nc(N)c3c2-c2oc3ccc(C)cc3c2C)CC1 [Compound A55, 2-({4-[4-amino-3-(3,5-dimethyl-1-benzo-furan-2-yl)-7-carbonyl-6,7-dihydro-2H-pyrazolo[3,4-d]pyridazin-2-yl]piperidin-1-yl}carbonyl)prop-2-enenitrile] | < 100 nM | ≤ 100 nM | 
6 | C=CC(=O)N1CCC(n2nc3c(=O)[nH]nc(N)c3c2-c2oc3cc(F)ccc3c2C)CC1 [Compound A83, 2-(1-acryloylpiperidin-4-yl)-4-amino-3-(6-fluoro-3-methylbenzofuran-2-yl)-2,6-dihydro-7H-pyrazole[3,4-d]pyridazine-7-one] | < 100 nM | ≤ 100 nM | 
7 | C=CC(=O)NC1CCC(n2nc3c(=O)[nH]nc(N)c3c2-c2oc3ccc(C)cc3c2C)CC1 (stereo not shown) [Compound A88, N-(4-(4-amino-3-(3,5-dimethylbenzo-furan-2-yl)-7-carbonyl-6,7-dihydro-2H-pyrazolo[3,4-d]pyridazin-2-yl)cyclohexyl)acryloylamide] | < 100 nM |  | ≤ 100 nM
8 | Cc1ccc2oc(-c3c4c(N)n[nH]c(=O)c4nn3-c3ccc(NC(=O)/C=C/CN4CCC4)cc3)c(C)c2c1 [Compound A27, (2E)-N-{4-[4-amino-3-(3,5-dimethyl-1-benzofuran-2-yl)-7-carbonyl-6,7-dihydro-2H-pyrazolo[3,4-d]pyridazin-2-yl]phenyl}-4-(azetidin-1-yl)but-2-enamide] | < 100 nM | ≤ 100 nM | 
9 | Cc1c(-c2c3c(N)n[nH]c(=O)c3nn2-c2ccccc2)oc2cc(F)ccc12 [Compound A8, 4-amino-3-(6-fluoro-3-methyl-1-benzo-furan-2-yl)-2-phenyl-2,6-dihydro-7H-pyrazolo[3,4-d]pyridazin-7-one] | < 100 nM | 100 to 1000 nM | 
10 | Cc1ccc2oc(-c3c4c(N)n[nH]c(=O)c4nn3-c3ccc(Cl)cc3)c(C)c2c1 [Compound A13, 4-amino-2-(4-chlorophenyl)-3-(3,5-dimethyl-1-benzofuran-2-yl)-2,6-dihydro-7H-pyrazolo[3,4-d]pyridazin-7-one] | < 100 nM | 100 to 1000 nM | 
11 | C=CC(=O)N1CCCC(n2nc3c(=O)[nH]nc(N)c3c2-c2oc3ccc(Cl)cc3c2C)C1 (stereo not shown) [Compound A87, 2-(1-acryloylpiperidin-3-yl)-4-amino-3-(5-chloro-3-methylbenzofuran-2-yl)-2,6-dihydro-7H-pyrazolo[3,4-d]pyridazine-7-one] | < 100 nM | ≤ 100 nM | 
